The text below walks through data of patent publication US6800750B1, “Mc1-1 gene regulatory elements and a pro-apoptotic mc1-1 variant” (Dartmouth College, priority 1999, dated 2004).

For assay [1], the system named is Mcl-1. Put plainly: Endogenous Mcl-1 expression in ML-1 cells exposed to inducers and inhibitors. The format is cell-based, human.
The test system of assay [2] is human Mcl-1 5′-flanking sequence. Put plainly: Transient luciferase expression assay of Mcl-1 reporter plasmids in K-562 cells. The format is cell-based. The source says:
A 1.7 kilobase (kb) XbaI/XmaI human Mcl-1 genomic fragment representing nucleotide residues −1656 to +160, where +1 denotes the major transcriptional start site, along with a 14 base pair (bp) adapter ligated to its 3′ end to place the luciferase gene in the correct reading frame, was inserted into NheI and HindIII digested pGL2-Basic luciferase reporter vector (Promega; Madison Wis.), yielding p(−1656)Mcl-1luc.
A series of 5′-deleted plasmids were constructed by double digestion of p(−1656)Mcl-1luc with SmaI, which cuts just upstream of the Mcl-1 insert, and restriction enzymes known to cut at unique sites within the Mcl-1 insert. […] Additional plasmids were constructed using PCR, including p(−107)Mcl-1luc, p(−51)Mcl-1luc, and p(+11)Mcl-1luc; the PCR products were sequenced to confirm their identity.
Specific mutations were introduced into the p(−162)Mcl-1luc plasmid using a two stage PCR method of Chen and Boxer (supra, 1995). The Ets site at nucleotides −129 to −121 was converted from CCGGAAGC (SEQ ID NO: 4) to CCTTAAGC (SEQ ID NO: 5;ΔEts); the Sp1 site at nucleotides −118 to −113 was converted from CCGCCC (SEQ ID NO: 6) to CTGACC (SEQ ID NO: 7;ΔSp1); and the SRE at nucleotides −106 to −97 was converted from CCTTTTATGG (SEQ ID NO:8) to CCTTCGGCTG (SEQ ID NO: 9;ΔSRE); altered nucleotides are indicated in bold type. All mutations were verified by sequencing. The PCR products containing the desired mutations were digested with BstEII and EcoRI, and ligated into the p(−162)Mcl-1luc plasmid, which had been digested with the same enzymes.
Electroporation was carried out with K-562 cells using the following protocol, which was based on preliminary experiments aimed at optimizing luciferase activity. Cells were washed twice and resuspended in PBS (5×10^6 cells in 0.5 ml) in the presence of 10 μg luciferase reporter plasmid, along with the pCMVhGH internal control plasmid used in most experiments (10 μg). After incubation on ice for 10 min, cells were electroporated (960 μF and 280 V; Bio-Rad Gene Pulser; Hercules Calif.), placed on ice for 15 min, then incubated at 37° C. (1×10^5 cells/ml) in Iscove's Modified Dulbecco's medium supplemented with 10% FBS, 100 units/ml penicillin, and 100 μg/ml streptomycin. After 17 hr, the cell suspension was divided into two portions, one of which was left untreated and the other of which was exposed to 1.7×10^−9 M TPA, which increased Mcl-1 expression in K-562 cells in a manner equivalent to that observed with 5×10^−10 TPA in ML-1 cells (Pahl et al., Expt. Hematol. 19:1038-1041 (1991), which is incorporated herein by reference). After 7 hr of exposure to TPA, when induction was at or near a peak level, cells were washed with PBS, then assayed in triplicate for luciferase activity (relative light units; Brasier et al., In “Current Protocols in Molecular Biology (Ausubel et al., eds.; John Wiley & Sons, N.Y. 1995), which is incorporated herein by reference; see pages 9.7.12-9.7.21) using a Microlite ML2250 Microtiter plate luminometer (Dynatech Laboratories; Chantilly Va.).
In most experiments, a human growth hormone reporter plasmid, pCMVhGH (10 μg), was used as a control for transfection efficiency. pCMVhGH yielded a linear increase in activity upon transfection with 2 to 10 μg plasmid, where activity with 2 μg of plasmid was near the limit of sensitivity of the hGH assay, but activity with 5 to 10 μg was sufficiently above background to be accurately quantified.
The experimental design, wherein an aliquot of cells electroporated with a test plasmid is divided into two portions, one of which was exposed to TPA and the other of which was not, was selected because CMV-based plasmids are subject to induction by TPA. […] Luciferase activity in both portions of cells was normalized to hGH production (assayed in triplicate in the portion of the sample not exposed to TPA).

Assay [3] has as its system Mcl-1. To be noted: cited from earlier work.
Another assay has as its system ML-1 cells. To be noted: cited from earlier work.
The subject of the next assay is Erk-1 and Erk-2. Put plainly: Phosphorylation state of MAP kinase proteins in ML-1 cells. Type of assay: cell-based, human.
A further assay deals with Hela cells. The assay is described as follows: Transient transfection cell death assay in Hela cells (β-gal marker, morphology scoring). Type of assay: cell-based, human. Here is the method: Two types of expression constructs were prepared for use in transfection into mammalian cells. In one set of constructs, Mcl-1 or the Mcl-1s/ΔTM variant were expressed in the pCR3.1 vector; in the second set of constructs, Mcl-1 was fused to green fluorescent protein (GFP). The Mcl-1 RT-PCR reaction products from the F4/R4 primer pair reactions (SEQ ID NOS: 15 and 17, respectively; cloned in pCR3.1) were digested with KpnI (a KpnI site is present in the F4 primer; SEQ ID NO: 15) and HindIII, as was full length Mcl-1(Mcl-1 clone p3.2 in pBluescriptII SK); Kozopas et al., supra, 1993) and the resulting 5′ region of the cDNA was isolated and ligated into pCR3.1 to yield full length Mcl-1 and Mcl-1s/ΔM. […]
The pCR3.1-based Mcl-1 clones were transiently transfected into subconfluent monolayers of Hela cells in 12 well plates using SUPERFECT (Qiagen). […] Forty hr after transfection, cells were fixed, stained for β-gal activity, and analyzed microscopically to assess cell morphology. Transfection experiments were performed in a double blind manner and cells were scored either as having a normal, viable morphology (flat, healthy cells) or an abnormal morphology characteristic of dying cells (dense, rounded, detaching cells). All blue staining cells in each dish were counted and the results were expressed as percentages of cells with viable versus dying phenotypes.

Read-outs that look alike come from different tables or passages of the source. Some results are limits rather than exact numbers.

As to `CC(=O)O[C@H]1C(=O)[C@@]2(C)[C@H]([C@H](OC(=O)c3ccccc3)[C@]3(O)C[C@H](OC(=O)[C@H](O)[C@@H](NC(=O)c4ccccc4)c4ccccc4)C(C)=C1C3(C)C)[C@]1(OC(C)=O)CO[C@@H]1C[C@@H]2O` [paclitaxel], in the assay on Mcl-1 [1], the “effect of pretreatment on increase in Mcl-1 expression produced by TPA” value is reported as “not” and the “effect of pretreatment on increase in Mcl-1 expression produced by colchicine or vinblastine” value was “blocked”.

On to `CC[C@]1(O)C[C@@H]2CN(CCc3c([nH]c4ccccc34)[C@@](C(=O)OC)(c3cc4c(cc3OC)N(C)[C@H]3[C@@](O)(C(=O)OC)[C@H](OC(C)=O)[C@]5(CC)C=CCN6CC[C@]43[C@@H]65)C2)C1` [vinblastine], for which, in the assay with Mcl-1 [1] (ML-1 cells), the Mcl-1 expression result is reported as “induced”.

Consider `COc1cc2c(c(OC)c1OC)-c1ccc(OC)c(=O)cc1[C@@H](NC(C)=O)CC2` [colchicine], for which the Mcl-1 expression result in the assay with Mcl-1 [1] (ML-1 cells) is on record as “induced”.

As for `COc1cccc(-c2cc(=O)c3ccccc3o2)c1N` [PD 98059], in assay [2] (K-562 cells, 1654 base pair reporter, PD 98059 prior to TPA exposure), the “decrease of TPA-induced luciferase activity” value is 78%. Moreover, in assay [2] (K-562 cells, FIG. 2C), the “effect on TPA-induced increase in luciferase activity” value was “substantially, but not completely, inhibited”. Moreover, in assay [2] (K-562 transfected cells, absence of TPA), the “effect on basal luciferase activity” value is reported as “caused a decline in basal activity”. In addition, the “effect on up-regulation of Mcl-1 expression by TPA, colchicine and vinblastine” value in the assay on Mcl-1 [1] (ML-1 cells) is on record as “prevented”. In addition, in the assay on Mcl-1 [3] (endogenously expressing cells, 8.5 hr assay period), the “basal Mcl-1 expression relative to value in the absence of PD 98059” value is “about 25%”. In addition, the “induction of endogenous Mcl-1 by TPA in the presence of PD 98059” value in the assay on Mcl-1 [3] (endogenously expressing cells) is “about 3.5 fold”. The cell death entry in the assay with ML-1 cells (ERK inhibitor applied alone) is on record as “not accompanied by cell death”; with ML-1 cells (ERK inhibitor applied in conjunction with TPA), “cells died by apoptosis”.

For the molecule `CCCCCCCCCCCCCC(=O)O[C@@H]1[C@@H](C)[C@@]2(O)[C@@H](C=C(CO)C[C@]3(O)C(=O)C(C)=C[C@@H]23)[C@@H]2C(C)(C)[C@]12OC(C)=O` [TPA, 12-O-tetradecanoylphorbol acetate], the “increase in reporter gene activity in response to TPA” value in assay [2] (162 bp segment of human Mcl-1 5′-flanking sequence) was “approximately 10 fold”. The “induction of luciferase activity by TPA” value in assay [2] (K-562 cells, Mcl-1-luciferase reporter constructs, test of cell lines) is given as “about 10 fold”; in assay [2] (p(−162)Mcl-1luc and p(−1663)Mcl-1luc, absence of pCMVhGH) it was “about 13.5 fold”; in assay [2] (p(−162)Mcl-1luc and p(−1663)Mcl-1luc, presence of pCMVhGH) it was “about 10.5 fold”. In addition, the “increase in luciferase activity after treatment with TPA” value in assay [2] (K-562 cells, luciferase reporter driven by 1654 base pair segment of Mcl-1 5′ flanking region) is reported as “approximately 8 fold”. Besides, the “increase in activity in the presence of TPA over reduced basal value” in assay [2] (K-562 cells, p(−107)Mcl-1luc and p(−51)Mcl-1luc) was “approximately 3.5 fold”. Moreover, the “induction by TPA” value in assay [2] (K-562 cells, p(−162)Mcl-1luc site mutation experiment (FIG. 3C)) is listed as 9 fold. Further, in assay [2] (K-562 cells, p(−1656)Mcl-1luc), the “increase in luciferase activity in the presence of TPA” value was “about 10 fold”. Moreover, the “fold-induction by TPA” value in assay [2] (K-562 cells, wild-type plasmid, additional experiments) is on record as “about 11 fold”. In assay [2] (K-562 cells, ΔSRE/ΔEts plasmid), the “fold-induction by TPA above reduced basal value” was “about 4 fold”. Further, the Mcl-1 expression result with Mcl-1 [1] (ML-1 cells) was “induced”. Moreover, the “phosphorylation of Erk-1 and Erk-2” value in the assay on Erk-1 and Erk-2 is given as “increased phosphorylation”. The “time at which increase in Mcl-1 mRNA is detectable” value in the assay with Mcl-1 [3] (ML-1 cells) is ≤ 1 h. Also, in the assay with Mcl-1 [3] (ML-1 cells, within 1 day), the “Mcl-1 mRNA level relative to peak value” was “about 50%”. For the same molecule, the “Mcl-1 level with TPA above low basal level” value in the assay with Mcl-1 [3] (TPA without ERK inhibitor) is on record as ~10 fold.

B1: Mcl-1s/ΔTM: 271 amino acid pro-apoptotic Mcl-1 splice variant, SEQ ID NO: 3, exon 1 joined to exon 3 (protein, listed as Homo sapiens)
chain: MFGLKRNAVIGLNLYCGGAGLGAGSGGATRPGGRLLATEKEASARREIGGGEAGAVIGGSAGASPPSTLTPDSRRVARPPPIGAEVPDVTATPARLLFFAPTRRAAPLEEMEAPAADAIMSPEEELDGYEPEPLGKRPAVLPLLELVGESGNNTSTDGSLPSTPPPAEEEEDELYRQSLEIISRYLREQATGAKDTKPMGRSGATSRKALETLRRVGDGVQRNHETVFQGWVCGVLPCRGPRRWHQECAAGFCRCCWSRSWFGISNKIALL
Take B1: the “killing of cells, quantitated by double blind scoring of blue staining cells” value in the assay on Hela cells is “as effective as Bax”.
